Measured values: publication PMC12655037, “Mitochondrial-Targeted Triphenylphosphonium-Conjugated Ionophores with Enhanced Cytotoxicity in Cancer Cells” (Molecules, 2025)

Key:
[1] = test system: PC3 human metastatic prostate cancer cells; assay: MTT assay, PC3 cells; type: cell-based; conditions: PC-3, 72 h, read-out: IC50 PC3
[2] = test system: SW480 human primary colon cancer cells; assay: MTT assay, SW480 cells; type: cell-based; conditions: SW480, 72 h, read-out: IC50 SW480
[3] = test system: SW620 human metastatic colon cancer cells; assay: MTT assay, SW620 cells; type: cell-based; conditions: SW-620, 72 h, read-out: IC50 SW620
[4] = test system: A549 human lung cancer cells; assay: MTT assay, A549 cells; type: cell-based; conditions: A549, 72 h, read-out: IC50 A549
[5] = Black lipid membrane (BLM) ionic current; conditions: at −60 mV, 50/150 mM KCl (cis/trans) gradient
A549 cells [6] = assay: MitoTracker Green FM flow cytometry (mitochondrial mass), A549; conditions: A549, 48 h at IC50 concentration
A549 cells [7] = assay: MitoTracker Red CMXRos flow cytometry (mitochondrial membrane potential), A549; conditions: A549, 48 h at IC50 concentration
prostate cancer cells = test system: prostate cancer cells; set-up: method as in PMID 21159605; conditions: no significant effects on normal prostate epithelial cells; cited from earlier work

SMILES | IC50 [1] [µM] | IC50 [2] [µM] | IC50 [3] [µM] | IC50 [4] [µM] | ionic current through artificial membrane [5] [pA] | cells positive for MTGreen fluorescence (A549 cells [6]) [%] | MTRed CMXRos positive stained cells (A549 cells [7]) [%] | growth inhibition of prostate cancer cells (prostate cancer cells)
CC[C@@H](C(=O)[C@@H](C)[C@@H](O)[C@H](C)[C@@H]1O[C@@H]([C@@H](CC)C(=O)O)CC[C@@H]1C)[C@H]1O[C@]2(C=C[C@H](n3cc(C[P+](c4ccccc4)(c4ccccc4)c4ccccc4)nn3)[C@]3(CC[C@@](C)([C@H]4CC[C@](O)(CC)[C@H](C)O4)O3)O2)[C@H](C)C[C@@H]1C [1a] | 1.2 ± 0.2 | 9 ± 3.6 | 16.4 ± 2.4 | 2.9 ± 0.5 |  |  |  | 
CC[C@@H](C(=O)[C@@H](C)[C@@H](O)[C@H](C)[C@@H]1O[C@@H]([C@@H](CC)C(=O)O)CC[C@@H]1C)[C@H]1O[C@]2(C=C[C@H](n3cc(COC(=O)CCC[P+](c4ccccc4)(c4ccccc4)c4ccccc4)nn3)[C@]3(CC[C@@](C)([C@H]4CC[C@](O)(CC)[C@H](C)O4)O3)O2)[C@H](C)C[C@@H]1C [1b] | 5.5 ± 1.4 | 8.8 ± 2.4 | 16.8 ± 4.4 | 3.9 ± 0.8 |  |  |  | 
CC[C@@H](C(=O)[C@@H](C)[C@@H](O)[C@H](C)[C@@H]1O[C@@H]([C@@H](CC)C(=O)O)CC[C@@H]1C)[C@H]1O[C@]2(C=C[C@H](n3cc(CNC(=O)CCC[P+](c4ccccc4)(c4ccccc4)c4ccccc4)nn3)[C@]3(CC[C@@](C)([C@H]4CC[C@](O)(CC)[C@H](C)O4)O3)O2)[C@H](C)C[C@@H]1C [1c] | 12.9 ± 1.3 | 9.8 ± 2 | 14 ± 4.1 | 15.6 ± 9.1 |  |  |  | 
CCCC[P+](CCCC)(CCCC)Cc1cn([C@H]2C=C[C@]3(O[C@H]([C@@H](CC)C(=O)[C@@H](C)[C@@H](O)[C@H](C)[C@@H]4O[C@@H]([C@@H](CC)C(=O)O)CC[C@@H]4C)[C@@H](C)C[C@H]3C)O[C@@]23CC[C@@](C)([C@H]2CC[C@](O)(CC)[C@H](C)O2)O3)nn1 [1d] | 3.6 ± 1.6 | 2.5 ± 0.6 | 1.8 ± 0.2 | 3.6 ± 0.5 | −10 |  |  | 
CC[C@@H](C(=O)[C@@H](C)[C@@H](O)[C@H](C)[C@@H]1O[C@@H]([C@@H](CC)C(=O)O)CC[C@@H]1C)[C@H]1O[C@]2(C=C[C@H](NC(=O)CCC[P+](c3ccccc3)(c3ccccc3)c3ccccc3)[C@]3(CC[C@@](C)([C@H]4CC[C@](O)(CC)[C@H](C)O4)O3)O2)[C@H](C)C[C@@H]1C [1e] | 4 ± 0.7 | 10.4 ± 2.3 | 10.9 ± 2.6 | 5.1 ± 0.8 |  |  |  | 
CC[C@@H](C(=O)[C@@H](C)[C@@H](O)[C@H](C)[C@@H]1O[C@@H]([C@@H](CC)C(=O)OCCCCCC[P+](c2ccccc2)(c2ccccc2)c2ccccc2)CC[C@@H]1C)[C@H]1O[C@]2(C=C[C@@H](OC(=O)CCC(=O)OCCCCCC[P+](c3ccccc3)(c3ccccc3)c3ccccc3)[C@]3(CC[C@@](C)([C@H]4CC[C@](O)(CC)[C@H](C)O4)O3)O2)[C@H](C)C[C@@H]1C [1f] |  |  |  |  | −10 | 61.6 |  | 
CCC1(C2OC(C3OC(O)(Cn4cc(C[P+](c5ccccc5)(c5ccccc5)c5ccccc5)nn4)C(C)CC3C)CC2C)CCC(C2(C)CCC3(CC(O)C(C)C(C(C)C(OC)C(C)C(=O)O)O3)O2)O1 (centres unmarked) [2a] | 0.4 ± 0.1 | 0.5 ± 0.1 | 0.7 ± 0.2 | 0.3 ± 0.02 |  |  |  | 
CCC1(C2OC(C3OC(O)(Cn4cc(COC(=O)CCC[P+](c5ccccc5)(c5ccccc5)c5ccccc5)nn4)C(C)CC3C)CC2C)CCC(C2(C)CCC3(CC(O)C(C)C(C(C)C(OC)C(C)C(=O)O)O3)O2)O1 (centres unmarked) [2b] | 0.7 ± 0.3 | 0.8 ± 0.04 | 1.5 ± 0.2 | 3.4 ± 1.1 |  |  |  | 
CCC1(C2OC(C3OC(O)(Cn4cc(CNC(=O)CCC[P+](c5ccccc5)(c5ccccc5)c5ccccc5)nn4)C(C)CC3C)CC2C)CCC(C2(C)CCC3(CC(O)C(C)C(C(C)C(OC)C(C)C(=O)O)O3)O2)O1 (centres unmarked) [2c] | 14.5 ± 2.1 | 18.3 ± 0.4 | 10.6 ± 0.4 | 14.9 ± 3.4 |  |  |  | 
CCCC[P+](CCCC)(CCCC)Cc1cn(CC2(O)OC(C3CC(C)C(C4(CC)CCC(C5(C)CCC6(CC(O)C(C)C(C(C)C(OC)C(C)C(=O)O)O6)O5)O4)O3)C(C)CC2C)nn1 (centres unmarked) [2d] | 3.1 ± 0.6 | 3.5 ± 0.1 | 4.3 ± 0.01 | 1.4 ± 0.4 |  |  |  | 
CCC1(C2OC(C3OC(O)(CNC(=O)CCC[P+](c4ccccc4)(c4ccccc4)c4ccccc4)C(C)CC3C)CC2C)CCC(C2(C)CCC3(CC(O)C(C)C(C(C)C(OC)C(C)C(=O)O)O3)O2)O1 (centres unmarked) [2e] | > 100 | 46.7 ± 3.1 | 28.1 ± 2.1 | > 100 |  |  |  | 
CCC1(C2OC(C3OC(O)(COC(=O)CCC(=O)OCCC[P+](c4ccccc4)(c4ccccc4)c4ccccc4)C(C)CC3C)CC2C)CCC(C2(C)CCC3(CC(O)C(C)C(C(C)C(OC)C(C)C(=O)OCCC[P+](c4ccccc4)(c4ccccc4)c4ccccc4)O3)O2)O1 (centres unmarked) [2f] | 1.4 ± 0.1 | 1.7 ± 0.3 | 2.3 ± 0.4 | 1.3 ± 0.2 |  |  | 22.5 | 
CC[C@@]1([C@@H]2O[C@@H]([C@H]3O[C@@](O)(CO)[C@H](C)C[C@@H]3C)C[C@@H]2C)CC[C@H]([C@]2(C)CC[C@]3(C[C@H](O)[C@@H](C)[C@@H]([C@@H](C)[C@@H](OC)[C@H](C)C(=O)O)O3)O2)O1 [MON, Monensin A] |  |  |  |  |  |  |  | selectively inhibited the growth of prostate cancer cells at nanomolar concentrations
CC[C@@H](C(=O)[C@@H](C)[C@@H](O)[C@H](C)[C@@H]1O[C@@H]([C@@H](CC)C(=O)O)CC[C@@H]1C)[C@H]1O[C@]2(C=C[C@@H](O)[C@]3(CC[C@@](C)([C@H]4CC[C@](O)(CC)[C@H](C)O4)O3)O2)[C@H](C)C[C@@H]1C [SAL, Salinomycin, reference compound] | 2.7 ± 0.1 | 1.1 ± 0.04 | 1.5 ± 0.06 | 1.6 ± 0.1 |  |  |  | 
